# Measurements published in patent US9862707B2, “TrkA kinase inhibitors, compositions and methods thereof” (Merck Sharp & Dohme Corp., priority 2014, dated 2018).
# Target: human TrkA receptor (Homo sapiens (Human), UniProt P04629)
# Test: TrkA functional activity, DiscoverX PathHunter assay
# Format: cell-based
# Settings: U2OS cells expressing human TrkA-PK, Shc1-EA and p75NTR; compound 1 h, then NGF at ~80% of maximal response for 3 h; luminescence
# human TrkA receptor, sequence (P04629 33-796): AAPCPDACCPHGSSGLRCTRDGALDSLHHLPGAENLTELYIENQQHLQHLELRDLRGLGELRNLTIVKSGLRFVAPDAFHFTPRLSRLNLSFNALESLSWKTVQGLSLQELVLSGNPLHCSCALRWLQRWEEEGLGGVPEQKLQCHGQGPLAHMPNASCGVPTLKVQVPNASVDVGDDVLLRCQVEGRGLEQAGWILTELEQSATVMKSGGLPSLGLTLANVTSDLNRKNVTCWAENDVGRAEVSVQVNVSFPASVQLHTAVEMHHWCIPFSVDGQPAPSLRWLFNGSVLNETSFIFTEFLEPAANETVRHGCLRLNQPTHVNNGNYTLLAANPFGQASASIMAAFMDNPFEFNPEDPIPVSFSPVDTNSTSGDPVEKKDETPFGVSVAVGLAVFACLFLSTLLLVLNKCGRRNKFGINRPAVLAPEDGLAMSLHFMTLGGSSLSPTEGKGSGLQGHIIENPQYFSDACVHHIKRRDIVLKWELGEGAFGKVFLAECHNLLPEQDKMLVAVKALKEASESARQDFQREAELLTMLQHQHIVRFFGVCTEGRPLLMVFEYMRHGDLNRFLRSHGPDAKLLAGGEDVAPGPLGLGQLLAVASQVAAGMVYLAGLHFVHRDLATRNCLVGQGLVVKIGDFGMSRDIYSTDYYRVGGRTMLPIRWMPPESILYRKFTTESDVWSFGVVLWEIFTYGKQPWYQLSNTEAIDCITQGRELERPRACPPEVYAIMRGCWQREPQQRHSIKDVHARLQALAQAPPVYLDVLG
row,IC50 [nM],Structure (SMILES)
1,52,"Cc1ccccc1-n1nc2cc(C(N)=O)cnc2c1NC(=O)c1cc(-c2ncccn2)c(C(F)(F)F)cc1F [Compound 91, 3-({[2-fluoro-5-pyrimidin-2-yl-4-(trifluoromethyl)phenyl]carbonyl}amino)-2-(2-methylphenyl)-2H-pyrazolo[4,3-b]pyridine-6-carboxamide]"
2,3.1,"O=C(Nc1c2cc(CCO)ccc2nn1-c1ccccc1)c1cc(-c2ncccn2)c(C(F)(F)F)cc1F [Compound 61, 2-fluoro-N-[5-(2-hydroxyethyl)-2-phenyl-2H-indazol-3-yl]-5-pyrimidin-2-yl-4-(trifluoromethyl)benzamide]"
3,32,"NC(=O)c1ccc2nn(-c3ccccc3)c(NC(=O)c3cc(-c4ncccn4)c(C(F)(F)F)cc3F)c2n1 [Compound 80, 3-({[2-fluoro-5-pyrimidin-2-yl-4-(trifluoromethyl)phenyl]carbonyl}amino)-2-phenyl-2H-pyrazolo[4,3-b]pyridine-5-carboxamide]"
4,1.6,"O=C(Nc1c2cc(C3(O)CC3)ccc2nn1-c1ccccc1)c1cc(-c2ncccn2)c(C(F)(F)F)cc1F [Compound 50, 2-Fluoro-N-(5-(1-hydroxycyclopropyl)-2-phenyl-2H-indazol-3-yl)-5-(pyrimidin-2-yl)-4-(trifluoromethyl)benzamide]"
5,1.9,"CC(O)c1ccc2c(NC(=O)c3cc(-c4ncccn4)c(C(F)(F)F)cc3F)n(-c3ccccc3)nc2c1 (single isomer, unassigned) [Compound 19, (R and S)-2-Fluoro-N-(6-(1-hydroxyethyl)-2-phenyl-2H-indazol-3-yl)-5-(pyrimidin-2-yl)-4-(trifluoromethyl)benzamide, isomers A and B]"
6,3.1,"NC(=O)c1ccc2c(NC(=O)c3cc(-c4ncccn4)c(C(F)(F)F)cc3F)n(-c3ccccc3)nc2c1 [Compound 73, 3-(2-Fluoro-5-(pyrimidin-2-yl)-4-(trifluoromethyl)benzamido)-2-phenyl-2H-indazole-6-carboxamide]"
7,6,"O=C(Nc1c2[nH]c(=O)ccc2nn1-c1ccccc1)c1cc(-c2ncccn2)c(C(F)(F)F)cc1F [Compound 2, 2-Fluoro-N-(5-oxo-2-phenyl-4,5-dihydro-2H-pyrazolo[4,3-b]pyridin-3-yl)-5-(pyrimidin-2-yl)-4-(trifluoromethyl)benzamide]"
8,8.9,"CNC(=O)Cc1ccc2c(NC(=O)c3cc(-c4ncccn4)c(C(F)(F)F)cc3F)n(-c3ccccc3)nc2c1 [Compound 96, 2-fluoro-N-{6-[2-(methylamino)-2-oxoethyl]-2-phenyl-2H-indazol-3-yl}-5-pyrimidin-2-yl-4-(trifluoromethyl)benzamide]"
9,2.4,"CC(O)c1cnc2c(NC(=O)c3cc(-c4ncccn4)c(C(F)(F)F)cc3Cl)n(-c3ccccc3)nc2c1 (single isomer, unassigned; isomer b) [Compound 36, (R or S)-2-chloro-N-[6-(1-hydroxyethyl)-2-phenyl-2H-pyrazolo[4,3-b]pyridin-3-yl]-5-pyrimidin-2-yl-4-(trifluoromethyl)benzamide, isomer B]"
10,71,"NCc1cnc2c(NC(=O)c3cc(-c4ncccn4)c(C(F)(F)F)cc3F)n(-c3ccccc3)nc2c1 [Compound 66, N-(6-(Aminomethyl)-2-phenyl-2H-pyrazolo[4,3-b]pyridin-3-yl)-2-fluoro-5-(pyrimidin-2-yl)-4-(trifluoromethyl)benzamide]"
11,1.3,"Cc1ccccc1-n1nc2cc(C(N)=O)ccc2c1NC(=O)c1cc(-c2ccn(C)n2)c(C(F)(F)F)cc1F [Compound 77, 3-(2-Fluoro-5-(1-methyl-1H-pyrazol-3-yl)-4-(trifluoromethyl)benzamido)-2-(o-tolyl)-2H-indazole-6-carboxamide]"
12,0.16,"Cn1ccc(-c2cc(C(=O)Nc3c4ncc(C(C)(C)O)cc4nn3-c3ccccc3)c(F)cc2C(F)(F)F)n1 [Compound 41, 2-Fluoro-N-(6-(2-hydroxypropan-2-yl)-2-phenyl-2H-pyrazolo[4,3-b]pyridin-3-yl)-5-(1-methyl-1H-pyrazol-3-yl)-4-(trifluoromethyl)benzamide]"
13,1.8,"CC(O)c1cnc2c(NC(=O)c3cc(-c4ncccn4)c(C(F)(F)F)cc3F)n(-c3ccccc3)nc2c1 (single isomer, unassigned; isomer a) [Compound 29, (R or S)-2-fluoro-N-[6-(1-hydroxyethyl)-2-phenyl-2H-pyrazolo[4,3-b]pyridin-3-yl]-5-pyrimidin-2-yl-4-(trifluoromethyl)benzamide, isomer A]"
14,0.48,"CC(O)c1cnc2c(NC(=O)c3cc(-c4ccn(C)n4)c(C(F)(F)F)cc3F)n(-c3ccccc3)nc2c1 (single isomer, unassigned; isomer b) [Compound 34, (R or S)-2-fluoro-N-[6-(1-hydroxyethyl)-2-phenyl-2H-pyrazolo[4,3-b]pyridin-3-yl]-5-(1-methyl-1H-pyrazol-3-yl)-4-(trifluoromethyl)benzamide, isomer B]"
15,2.6,"NC(=O)c1cnc2c(NC(=O)c3cc(-c4ccccn4)c(C(F)(F)F)cc3F)n(-c3ccccc3)nc2c1 [Compound 84, 3-({[2-fluoro-5-pyridin-2-yl-4-(trifluoromethyl)phenyl]carbonyl}amino)-2-phenyl-2H-pyrazolo[4,3-b]pyridine-6-carboxamide]"
16,11,"O=C(NCCO)c1ccc2c(NC(=O)c3cc(-c4ncccn4)c(C(F)(F)F)cc3F)n(-c3ccccc3)nc2c1 [Compound 92, 3-({[2-fluoro-5-pyrimidin-2-yl-4-(trifluoromethyl)phenyl]carbonyl}amino)-N-(2-hydroxyethyl)-2-phenyl-2H-indazole-6-carboxamide]"

# The next lines start with the compound.
row,Structure (SMILES),IC50 [nM]
1,"CC(O)c1ccc2c(NC(=O)c3cc(-c4ncccn4)c(C(F)(F)F)cc3Cl)n(-c3ccccc3)nc2c1 (single isomer, unassigned; isomer b) [Compound 38, (R or S)-2-chloro-N-[6-(1-hydroxyethyl)-2-phenyl-2H-indazol-3-yl]-5-pyrimidin-2-yl-4-(trifluoromethyl)benzamide, isomer B]",4.9
2,"NC(=O)c1ccc2c(NC(=O)c3cc(-c4ccccn4)c(C(F)(F)F)cc3F)n(-c3ccccc3)nc2c1 [Compound 81, 3-({[2-fluoro-5-pyridin-2-yl-4-(trifluoromethyl)phenyl]carbonyl}amino)-2-phenyl-2H-indazole-6-carboxamide]",2.9
3,"CC(O)c1ccc2nn(-c3ccccc3)c(NC(=O)c3cc(-c4cc[nH]n4)c(C(F)(F)F)cc3F)c2n1 (single isomer, unassigned; isomer a) [Compound 31, (R or S)-2-fluoro-N-[5-(1-hydroxyethyl)-2-phenyl-2H-pyrazolo[4,3-b]pyridin-3-yl]-5-(1H-pyrazol-3-yl)-4-(trifluoromethyl)benzamide, isomer A]",5.2
4,"CC(O)c1cnc2c(NC(=O)c3cc(-c4ccn(C)n4)c(C(F)(F)F)cc3F)n(-c3ccccc3)nc2c1 (single isomer, unassigned; isomer a) [Compound 33, (R or S)-2-fluoro-N-[6-(1-hydroxyethyl)-2-phenyl-2H-pyrazolo[4,3-b]pyridin-3-yl]-5-(1-methyl-1H-pyrazol-3-yl)-4-(trifluoromethyl)benzamide, isomer A]",0.25
5,"CC(O)c1ccc2c(NC(=O)c3cc(-c4ncccn4)c(C(F)(F)F)cc3Cl)n(-c3ccccc3)nc2c1 (single isomer, unassigned; isomer a) [Compound 37, (R or S)-2-chloro-N-[6-(1-hydroxyethyl)-2-phenyl-2H-indazol-3-yl]-5-pyrimidin-2-yl-4-(trifluoromethyl)benzamide, isomer A]",4.4
6,"CC(O)c1cnc2c(NC(=O)c3cc(-c4cc[nH]n4)c(C(F)(F)F)cc3F)n(-c3ccccc3)nc2c1 (single isomer, unassigned) [Compound 21, 2-Fluoro-N-(6-(1-hydroxyethyl)-2-phenyl-2H-pyrazolo[4,3-b]pyridin-3-yl)-5-(1H-pyrazol-3-yl)-4-(trifluoromethyl)benzamide, isomers A and B]",0.69
7,"O=C(Nc1c2nc(CO)ccc2nn1-c1ccccc1)c1cc(-c2ncccn2)c(C(F)(F)F)cc1Cl [Compound 17, 2-chloro-N-[5-(hydroxymethyl)-2-phenyl-2H-pyrazolo[4,3-b]pyridin-3-yl]-5-pyrimidin-2-yl-4-(trifluoromethyl)benzamide]",18
8,"Cn1ccc(-c2cc(C(=O)Nc3c4ncc(C(C)(C)O)cc4nn3-c3ccccc3)ccc2C(F)(F)F)n1 [Compound 48, N-[6-(1-hydroxy-1-methylethyl)-2-phenyl-2H-pyrazolo[4,3-b]pyridin-3-yl]-3-(1-methyl-1H-pyrazol-3-yl)-4-(trifluoromethyl)benzamide]",5.2
9,"O=C(Nc1c2ccc(C(O)C(F)F)cc2nn1-c1ccccc1)c1cc(-c2ncccn2)c(C(F)(F)F)cc1F (single isomer, unassigned; isomer a) [Compound 56, (R or S)-N-[6-(2,2-difluoro-1-hydroxyethyl)-2-phenyl-2H-indazol-3-yl]-2-fluoro-5-pyrimidin-2-yl-4-(trifluoromethyl)benzamide, isomer A]",2.8
10,"O=C(Nc1c2cc(C(O)C(F)F)ccc2nn1-c1ccccc1)c1cc(-c2ncccn2)c(C(F)(F)F)cc1F (single isomer, unassigned; isomer b) [Compound 59, (R or S)-N[5-(2,2-difluoro-1-hydroxyethyl)-2-phenyl-2H-indazol-3-yl]-2-fluoro-5-pyrimidin-2-yl-4-(trifluoromethyl)benzamide, isomer B]",4.9
11,"CC(O)c1ccc2nn(-c3ccccc3)c(NC(=O)c3cc(-c4cc[nH]n4)c(C(F)(F)F)cc3F)c2n1 (single isomer, unassigned; isomer b) [Compound 32, (R or S)-2-fluoro-N-[5-(1-hydroxyethyl)-2-phenyl-2H-pyrazolo[4,3-b]pyridin-3-yl]-5-(1H-pyrazol-3-yl)-4-(trifluoromethyl)benzamide, isomer B]",5.1
12,"CC(C)(O)c1cnc2c(NC(=O)c3cc(-c4cc[nH]n4)c(C(F)(F)F)cc3F)n(-c3ccccc3)nc2c1 [Compound 47, 2-fluoro-N-[6-(1-hydroxy-1-methylethyl)-2-phenyl-2H-pyrazolo[4,3-b]pyridin-3-yl]-5-(1H-pyrazol-3-yl)-4-(trifluoromethyl)benzamide]",2.6
